Where two headings read alike, the source gives them in different places.
What was measured:
Pyricularia oryzae = type: in vivo; details: 2 sprays, rice field
Rhizoctonia solani = experiment: Field assessment of Rhizoctonia solani (RHIZSO, sheath blight) in rice; type: in vivo; details: 2 sprays
Protocol: The experimental plots were inoculated with Rhizoctonia solani_2 days after the first application at growth stage BBCH 59 of rice.
Disease infection percentage was calculated as (lesion lengths)/(total sheath lengths)×100% on 6 plants per plot randomly. Sheath blight infection was assessed three times, 7 days after application A (DAAA) plus 7 and 14 DAAB. The disease infection was recorded following EPPO PP1/26 guideline prescriptions.

[1] = tested on: Gaeumannomyces graminis var. graminis; experiment: Field assessment of Gaeumannomyces graminis var. graminis (GAEUGR) in rice; type: in vivo
From the text: The applications were made as preventative treatments, with no infection at the time of application. The first symptoms of […] were observed after three applications.

Cochliobolus miyabeanus = experiment: Field assessment of Cochliobolus miyabeanus (COCHMI, brown spot) in rice; details: for Percent Control (AUDPC), Panicle: panicles; for Percent Control (AUDPC), Plot: whole plot foliage
Protocol: The applications were made as early curative treatments, with the first application coming at the vegetative stage (50 to 70 DAP; max tillering to booting). The treatments were part of an experimental trial designed as a randomized complete block with four replications and a plot of approximately 5×2 m.
Disease assessments were made every seven days until three weeks after the second application. Disease severity was recorded as a percentage of visual diseased foliage on whole plot and as a percentage of visual infection on the rice panicles. Area under the disease progress curve (AUDPC) was calculated for each plot using the sets of recorded severity data. Relative AUDPC (% control based on AUDPC) was calculated as percent of the nontreated control. Also included in the study is the effect on efficacy of the addition of two adjuvants at varied rates: Agnique BP-420 (50% w/w) at rates from 0.05% to 0.3%; and Agnique BP-420 (50% w/w) plus MSO (methylated seed oil) at rates from 0.25% to 0.75%.

[2] = 100 g ai/ha, Adjuvant A (Agnique BP-420) 0.2% v/v
[3] = 150 g ai/ha, Adjuvant A (Agnique BP-420) 0.3% v/v
[4] = 125 g ai/ha, commercial standard

## N#Cc1ccc(Oc2ccc(C(F)(F)C(O)(Cn3ncnc3S)c3ccc(F)cc3F)nc2)cc1 (stereo not drawn) [Compound I, 4-((6-(2-(2,4-difluorophenyl)-1,1-difluoro-2-hydroxy-3-(5-mercapto-1H-1,2,4-triazol-1-yl)propyl)pyridin-3-yl)oxy)benzonitrile]
Pyricularia oryzae; 50 g ai/ha
  Disease (% Control) PYRIOR, based on AUDPC: C (26-50)
Pyricularia oryzae; 100 g ai/ha
  Disease (% Control) PYRIOR, based on AUDPC: B (51-75)
Pyricularia oryzae; 150 g ai/ha
  Disease (% Control) PYRIOR, based on AUDPC: A (76-100)
Pyricularia oryzae; 200 g ai/ha
  Disease (% Control) PYRIOR, based on AUDPC: A (76-100)
Rhizoctonia solani; 50 g ai/ha
  Disease (% Control) RHIZSO, based on AUDPC: D (1-25)
Rhizoctonia solani; 100 g ai/ha
  Disease (% Control) RHIZSO, based on AUDPC: C (26-50)
Rhizoctonia solani; 150 g ai/ha
  Disease (% Control) RHIZSO, based on AUDPC: C (26-50)
Rhizoctonia solani; 200 g ai/ha
  Disease (% Control) RHIZSO, based on AUDPC: B (51-75)
[1]; 100 g ai/ha, Adjuvant A (Agnique BP-420) 0.1% v/v
  % Control (AUDPC of visual infection on the plant): B (51-75)
[1]; [2]
  % Control (AUDPC of visual infection on the plant): B (51-75)
[1]; 100 g ai/ha, Adjuvant A (Agnique BP-420) 0.3% v/v
  % Control (AUDPC of visual infection on the plant): B (51-75)
[1]; 100 g ai/ha, Adjuvant B (Agnique BP-420 + MSO) 0.5% v/v
  % Control (AUDPC of visual infection on the plant): B (51-75)
[1]; 100 g ai/ha, Adjuvant B (Agnique BP-420 + MSO) 1.0% v/v
  % Control (AUDPC of visual infection on the plant): B (51-75)
[1]; 100 g ai/ha, Adjuvant B (Agnique BP-420 + MSO) 1.5% v/v
  % Control (AUDPC of visual infection on the plant): B (51-75)
[1]; 100 g ai/ha, adjuvant None
  % Control (AUDPC of visual infection on the plant): C (26-50)
[1]; [3]
  % Control (AUDPC of visual infection on the plant): B (51-75)
[1]; 200 g ai/ha, Adjuvant A (Agnique BP-420) 0.4% v/v
  % Control (AUDPC of visual infection on the plant): A (76-100)
Cochliobolus miyabeanus; 50 g ai/ha, Adjuvant A (Agnique BP-420) 0.05% v/v
  % Control (AUDPC of visual infection on the plant): B (51-75)
Cochliobolus miyabeanus; 50 g ai/ha, Adjuvant A (Agnique BP-420) 0.1% v/v
  % Control (AUDPC of visual infection on the plant): B (51-75)
Cochliobolus miyabeanus; 50 g ai/ha, Adjuvant A (Agnique BP-420) 0.15% v/v
  % Control (AUDPC of visual infection on the plant): B (51-75)
Cochliobolus miyabeanus; 50 g ai/ha, Adjuvant B (Agnique BP-420 + MSO) 0.25% v/v
  % Control (AUDPC of visual infection on the plant): B (51-75)
Cochliobolus miyabeanus; 50 g ai/ha, Adjuvant B (Agnique BP-420 + MSO) 0.5% v/v
  % Control (AUDPC of visual infection on the plant): B (51-75)
Cochliobolus miyabeanus; 50 g ai/ha, Adjuvant B (Agnique BP-420 + MSO) 0.75% v/v
  % Control (AUDPC of visual infection on the plant): B (51-75)
Cochliobolus miyabeanus; 50 g ai/ha, […]
  Percent Control (AUDPC), Panicle: C (26-50)
  Percent Control (AUDPC), Plot: C (26-50)
Cochliobolus miyabeanus; 50 g ai/ha, adjuvant None
  % Control (AUDPC of visual infection on the plant): C (26-50)
Cochliobolus miyabeanus; 75 g ai/ha, […]
  Percent Control (AUDPC), Panicle: C (26-50)
  Percent Control (AUDPC), Plot: C (26-50)
Cochliobolus miyabeanus; [2]
  % Control (AUDPC of visual infection on the plant): B (51-75)
Cochliobolus miyabeanus; 100 g ai/ha, […]
  Percent Control (AUDPC), Panicle: C (26-50)
  Percent Control (AUDPC), Plot: C (26-50)
Cochliobolus miyabeanus; 125 g ai/ha, […]
  Percent Control (AUDPC), Panicle: B (51-75)
  Percent Control (AUDPC), Plot: C (26-50)
Cochliobolus miyabeanus; [3]
  % Control (AUDPC of visual infection on the plant): A (76-100)
Cochliobolus miyabeanus; 150 g ai/ha, […]
  Percent Control (AUDPC), Panicle: B (51-75)
  Percent Control (AUDPC), Plot: B (51-75)

## N#CC(CCc1ccc(Cl)cc1)(Cn1cncn1)c1ccccc1 (stereo not drawn) [Fenbuconazole, reference compound]
[1]; 144 g ai/ha, adjuvant Inex-A 0.15% v/v
  % Control (AUDPC of visual infection on the plant): B (51-75)

## CCCC1COC(Cn2cncn2)(c2ccc(Cl)cc2Cl)O1 (stereo not drawn) [Propiconazole, reference compound]
Cochliobolus miyabeanus; [4]
  Percent Control (AUDPC), Panicle: B (51-75)
  Percent Control (AUDPC), Plot: B (51-75)
